Test results from patent US8466155B2, “Pyrimidines” (Boehringer Ingelheim International GmbH, priority 2009, dated 2013).

biological target: T1, PTK2 (Homo sapiens, UniProt Q05397); assay: PTK2 enzyme test, Assay 2 (DELFIA, PT66 antibody); assay type: biochemical; conditions: values marked (*), read-out: PTK2 1 h IC50
T1 construct: purchased Invitrogen PV3832
Text: This test uses active PTK2 enzyme (Invitrogen Code PV3832) and poly-Glu-Tyr (4:1, Sigma P-0275) as the kinase substrate. The kinase activity is detected by means of the phosphorylation of the substrate in a DELFIA™ assay. The phosphorylated substrate is detected with the europium-labelled phosphotyrosine antibody PT66 (Perkin Elmer, No.: AD0040).
In order to determine concentration-activity curves with PTK2-inhibitors the compounds are serially diluted first of all in 100% DMSO and then in kinase dilution buffer (20 mM TRIS/HCl pH 7.5, 0.1 mM EDTA, 0.1 mM EGTA, 0.286 mM sodium orthovanadate, 10% glycerol with the addition of freshly prepared BSA (fraction V, 1 mg/mL) and DTT (1 mM)) and 10 μL of each dilution are dispensed per well in a 96-well microtitre plate (clear U-shaped base plate, Greiner No. 650101) (the inhibitors are tested in duplicates) and mixed with 10 μL/well of PTK2 kinase (0.01 μg/well). PTK2 kinase is diluted accordingly beforehand with kinase dilution buffer. […]
The time-delayed europium fluorescence is then measured in a microtitre plate reader (VICTOR^3, Perkin Elmer). […]
The IC50 values are determined from concentration-activity analyses by iterative calculation using a sigmoid curve analysis algorithm (FIFTY, based on GraphPAD Prism Version 3.03) with a variable Hill coefficient.

T1 sequence (Q05397 whole entry): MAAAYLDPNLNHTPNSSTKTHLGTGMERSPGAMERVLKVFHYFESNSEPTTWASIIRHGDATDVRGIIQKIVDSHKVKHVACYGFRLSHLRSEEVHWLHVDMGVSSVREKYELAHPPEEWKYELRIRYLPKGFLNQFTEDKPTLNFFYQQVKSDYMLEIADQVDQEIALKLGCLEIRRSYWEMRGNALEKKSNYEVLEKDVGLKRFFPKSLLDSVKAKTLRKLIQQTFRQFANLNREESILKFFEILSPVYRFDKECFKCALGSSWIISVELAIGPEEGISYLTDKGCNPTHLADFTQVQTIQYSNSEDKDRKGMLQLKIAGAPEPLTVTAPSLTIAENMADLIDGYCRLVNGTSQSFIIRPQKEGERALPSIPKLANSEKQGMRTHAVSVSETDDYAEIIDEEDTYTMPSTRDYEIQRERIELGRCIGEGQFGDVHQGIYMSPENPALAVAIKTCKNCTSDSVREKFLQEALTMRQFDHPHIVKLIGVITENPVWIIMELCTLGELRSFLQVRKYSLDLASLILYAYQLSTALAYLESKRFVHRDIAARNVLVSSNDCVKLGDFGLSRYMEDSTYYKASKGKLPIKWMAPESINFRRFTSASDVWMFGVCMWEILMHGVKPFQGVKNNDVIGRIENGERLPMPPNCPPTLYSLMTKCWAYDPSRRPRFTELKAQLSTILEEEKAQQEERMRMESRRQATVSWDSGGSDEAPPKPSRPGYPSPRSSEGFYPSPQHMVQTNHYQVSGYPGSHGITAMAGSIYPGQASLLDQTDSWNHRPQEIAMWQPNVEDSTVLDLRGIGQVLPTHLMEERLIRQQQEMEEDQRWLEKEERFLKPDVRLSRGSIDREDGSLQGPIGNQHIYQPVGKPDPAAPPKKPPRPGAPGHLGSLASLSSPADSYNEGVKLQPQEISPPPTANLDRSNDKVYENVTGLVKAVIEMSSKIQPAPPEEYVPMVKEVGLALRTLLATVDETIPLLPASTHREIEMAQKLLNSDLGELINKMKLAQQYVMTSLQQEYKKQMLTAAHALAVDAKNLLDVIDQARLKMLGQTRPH

**Q.** How did the IC50 turn out when COc1cc(N2CCN(C(C)(C)C)CC2)ccc1Nc1ncc(C(F)(F)F)c(O[C@@H]2Cc3ccccc3[C@H]2N(C)S(C)(=O)=O)n1 [Example 90, N-((1R,2R)-2-{2-[4-(4-tert-butyl-piperazin-1-yl)-2-methoxy-phenylamino]-5-trifluoromethyl-pyrimidin-4-yloxy}-indan-1-yl)-N-methyl-methanesulphonamide] was run?
**A.** 0.85 nM

**Q.** COc1ccc(C(=O)NC2CCN(C)CC2)cc1Nc1ncc(C(F)(F)F)c(O[C@@H]2Cc3ccccc3[C@H]2N(C)S(C)(=O)=O)n1 [Example 79, 3-{4-[(1R,2R)-1-(methanesulphonyl-methyl-amino)-indan-2-yloxy]-5-trifluoromethyl-pyrimidin-2-ylamino}-4-methoxy-N-(1-methyl-piperidin-4-yl)-benzamide] was tested. Which IC50 did it give?
**A.** 0.4 nM

biological target: T1, PTK2; assay: PTK2 enzyme test, Assay 1 (DELFIA, PT60 antibody); assay type: biochemical; conditions: 1 h pre-incubation, 1 h kinase reaction, values without *

**Q.** How did the IC50 turn out when COc1cc(C(=O)NCCN(C)C)c(Cl)cc1Nc1ncc(C(F)(F)F)c(O[C@@H]2Cc3ccccc3[C@H]2NS(C)(=O)=O)n1 [Example 86] was run?
**A.** 0.45 nM

**Q.** With COc1cc(C(=O)N[C@H]2CC[C@H](O)CC2)c(F)cc1Nc1ncc(C(F)(F)F)c(O[C@@H]2Cc3ccccc3[C@H]2N(C)S(C)(=O)=O)n1 [Example 10] as the compound, how does the IC50 read?
**A.** 7 nM

**Q.** COc1cc(C(=O)NN2CCN(C)CC2)c(F)cc1Nc1ncc(C(F)(F)F)c(O[C@@H]2CCC[C@H]2NS(C)(=O)=O)n1 [Example 98] was tested. Which IC50 did it give?
**A.** 4 nM

**Q.** With COc1cc(C(=O)NCCN2CCN(C)CC2)ccc1Nc1ncc(C(F)(F)F)c(O[C@@H]2Cc3ccccc3[C@H]2N(C)S(C)(=O)=O)n1 [Example 16] as the compound, how does the IC50 read?
**A.** 4 nM

**Q.** How did the IC50 turn out when COc1cc(C(=O)NC[C@@H](O)CO)c(F)cc1Nc1ncc(Cl)c(O[C@@H]2Cc3ccccc3[C@H]2N(C)S(C)(=O)=O)n1 [Example 51] was run?
**A.** 13 nM

**Q.** How did the IC50 turn out when COc1cc(C(=O)NN2CCN(C)CC2)ccc1Nc1ncc(C(F)(F)F)c(O[C@@H]2Cc3ccccc3[C@H]2N(C)S(C)(=O)=O)n1 [Example 19] was run?
**A.** 4 nM

**Q.** For CONC(=O)c1cc(OC)c(Nc2ncc(Cl)c(O[C@@H]3Cc4ccccc4[C@H]3N(C)S(C)(=O)=O)n2)cc1F [Example 43], which IC50 is on record?
**A.** 22 nM

**Q.** How did the IC50 turn out when COc1cc(C(=O)N(C)C)c(F)cc1Nc1ncc(Cl)c(O[C@@H]2Cc3ccccc3[C@H]2N(C)S(C)(=O)=O)n1 [Example 54] was run?
**A.** 92 nM

**Q.** Which IC50 does the source give for COc1cc(C(=O)NC[C@@H](O)CO)c(Cl)cc1Nc1ncc(Cl)c(O[C@@H]2Cc3ccccc3[C@H]2N(C)S(C)(=O)=O)n1 [Example 42] here?
**A.** 4 nM

**Q.** For COc1cc(C(=O)NC2CCN(C)CC2)c(Cl)cc1Nc1ncc(C(F)(F)F)c(O[C@@H]2CCCC[C@H]2N(C)S(C)(=O)=O)n1 [Example 74, 2-chloro-4-{4-[(1R,2R)-2-(methanesulphonyl-methyl-amino)-cyclohexyloxy]-5-trifluoromethyl-pyrimidin-2-ylamino}-5-methoxy-N-(1-methyl-piperidin-4-yl)-benzamide], which IC50 is on record?
**A.** 0.42 nM

**Q.** COc1cc(C(=O)NCCN(C)C)c(F)cc1Nc1ncc(C(F)(F)F)c(O[C@@H]2CCCC[C@H]2N(C)S(C)(=O)=O)n1 [Example 110] was tested. Which IC50 did it give?
**A.** 0.35 nM

**Q.** COc1cc(C(=O)NCCn2ccnc2C)c(F)cc1Nc1ncc(C(F)(F)F)c(O[C@@H]2Cc3ccccc3[C@H]2N(C)S(C)(=O)=O)n1 [Example 4] was tested. Which IC50 did it give?
**A.** 5 nM

**Q.** Which IC50 does the source give for COc1cc(C(=O)NCC(C)(C)C)ccc1Nc1ncc(C(F)(F)F)c(O[C@@H]2Cc3ccccc3[C@H]2N(C)S(C)(=O)=O)n1 [Example 15] here?
**A.** 11 nM

**Q.** For CCS(=O)(=O)N[C@@H]1CCC[C@H]1Oc1nc(Nc2cc(F)c(C(=O)NC3CCN(C)CC3)cc2OC)ncc1C(F)(F)F [Example 44], which IC50 is on record?
**A.** 6 nM
